According to PMC3350394, “Kinetic analysis and test-retest variability of the radioligand [^11C](R)-PK11195 binding to TSPO in the human brain - a PET study in control subjects” (EJNMMI Research, 2012):
“And” between values parts separate entries of the source, which are not always exact repeats. Equal values may be shown once.

Molecular target: TSPO (Homo sapiens, UniProt P30536)
Assay: PET, kinetic compartment analysis (1TCM, 2TCM) with metabolite-corrected arterial input function
Conditions: for BPND (k3/k4) Mean: mean of test and retest; for BPND (k3/k4) Retest / BPND (k3/k4) Test / VT (2TCM): mean(SD); for BPND (k3/k4) Retest / BPND (k3/k4) Test: 6 subjects; for ICC: BPND test-retest
Method: Each subject was placed recumbent with the head in the PET system. A head fixation system with an individual plaster helmet was used. A cannula was inserted into the left radial artery and another into the right antecubital vein. A sterile phosphate buffer (pH = 7.4) containing radioligand was injected as a bolus over 2 s into the cubital vein. The cannula was then immediately flushed with a 10-mL saline solution. In each individual, the measurement was repeated after approximately 6 weeks.
The PET system used was ECAT Exact HR 47 (Siemens/CTI, Knoxville, TN, USA), with an in-plane and an axial resolution of 3.6 and 4.0 mm, respectively, full width at half maximum (FWHM). The radioactivity in the brain was measured continuously for 60 min using a pre-programmed sequence of […] (20 s × 9, 30 s × 6, 180 s × 5, 300 s × 5). […] The images were reconstructed with a Hanning filter (FWHM = 2 mm) in a matrix of 128 × 128 × 47 voxels, yielding a voxel size of 2.03 × 2.03 × 3.125 mm. Attenuation correction was done using transmission scan data obtained for each subject.
[^11C](R)-PK11195 binding to TSPO was quantified using kinetic compartment analyses with the metabolite-corrected arterial plasma curve as input function. Two compartment models (one- and two-tissue) were used to fit the model to the TACs. The fractional volume of blood present in the tissue volume and bolus time were estimated for each individual, each occasion, by fitting the whole brain TAC with a two-tissue compartment model.
The one-tissue compartment model (1TCM) describes one compartment which is a composite of free, non-specifically and specifically bound radioligands. The two rate constants, K1 and k2, describe the influx and efflux rates across the blood-brain barrier, respectively.
The two-tissue compartment model (2TCM) has been described in detail in the literature. The two-tissue compartments are defined as the radioactivity concentration of a nondisplaceable radioligand in the brain (CND) and the radioactivity concentration of a radioligand specifically bound to receptors (CB). In this model, four rate constants (K1, k2, k3 and k4) explain the time curves for radioligand in the brain. In short, the four rate constants were determined by curve fitting with a weighted non-linear least squares fitting technique with constraint-restricting parameters between 0 and 0.9. Each initial value for K1, k2, k3 and k4 was 0.5, 0.1, 0.5 and 0.5, respectively. The local minimum of the sum of the squared residuals was determined by iteration.
Regional [^11C](R)-PK11195 binding was expressed using the concept of the total distribution volume (VT), which is defined by the following equation, using kinetic constants obtained from 2TCM [16, 20, 21].
Specific [^11C](R)-PK11195 binding was expressed as binding potential relative to nondisplaceable binding (BPND) as follows:
The fractional volume of blood present in the tissue volume was determined for each individual, each occasion. It was obtained by fitting whole brain TAC with a 2TCM with six parameters (K1, k2, k3, k4, fractional blood volume (VB) and time shift between plasma input function and PET TAC (tbolus)) and parameters VB and tbolus subsequently applied for each brain region.
The reproducibility of two successive PET measurements was analysed by means of descriptive statistics (mean, range, SD, coefficient of variance (CV), difference in measurement (error in percent) and intra-class correlation coefficient (ICC)). The ICC was calculated from the between-subject and within-subject variations, using the expression: […]

[1] = brainstem, BPND test-retest difference in measurements
[2] = brainstem, VT (2TCM) test-retest
[3] = caudate (L), BPND test-retest difference in measurements
[4] = caudate (R), BPND test-retest difference in measurements
[5] = cerebellum, BPND test-retest difference in measurements
[6] = cerebellum, VT (2TCM) test-retest
[7] = grey matter, cortex, BPND test-retest difference in measurements
[8] = grey matter, 1TCM, retest (2), individual subjects 1-6
[9] = grey matter, 1TCM, test (1), individual subjects 1-6
[10] = grey matter, 1TCM, test (1), mean(SD/CV) of 6 subjects
[11] = grey matter, 2TCM, retest (2), individual subjects 1-6
[12] = grey matter, 2TCM, retest (2), mean(SD/CV) of 6 subjects
[13] = grey matter, 2TCM, test (1), individual subjects 1-6
[14] = grey matter, 2TCM, test (1), mean(SD/CV) of 6 subjects
[15] = grey matter, VT (2TCM) test-retest
[16] = putamen (L), BPND test-retest difference in measurements

TSPO, sequence (P30536 whole entry): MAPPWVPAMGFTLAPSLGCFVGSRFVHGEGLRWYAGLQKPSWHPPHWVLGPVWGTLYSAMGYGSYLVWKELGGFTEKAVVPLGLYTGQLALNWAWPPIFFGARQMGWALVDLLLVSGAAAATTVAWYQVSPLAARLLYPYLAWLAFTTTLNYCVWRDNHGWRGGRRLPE

CC[C@@H](C)N([11CH3])C(=O)c1cc2ccccc2c(-c2ccccc2Cl)n1 [[^11C](R)-PK11195]
influx rate constant K1 (2TCM, range): 0.05 to 0.09 | BPND throughout the human brain, range (2TCM, regional means): 1.11 to 2.21 | BPND (k3/k4) Mean (brainstem, 2TCM): 2.09 | BPND (k3/k4) Retest (brainstem, 2TCM): 2.18(0.33) | BPND (k3/k4) Test (brainstem, 2TCM): 2.00(0.35) | ICC (brainstem): -0.6 | Error % mean(SD) [1]: -13(31) % | Error range (%) [1]: -45 to 26% | Error % mean(SD) [2]: -13(10) % | Error range (%) [2]: -29 to -1% | VT (2TCM) (brainstem, retest): 0.74 (0.16) | VT (2TCM) (brainstem, test): 0.86(0.18) | BPND (k3/k4) Mean (caudate (L), 2TCM): 1.68 | BPND (k3/k4) Retest (caudate (L), 2TCM): 1.84(0.93) | BPND (k3/k4) Test (caudate (L), 2TCM): 1.52(0.43) | ICC (caudate (L)): -0.05 | Error % mean(SD) [3]: -27(66) % | Error range (%) [3]: -133 to 42% | BPND (k3/k4) Mean (caudate (R), 2TCM): 1.77 | BPND (k3/k4) Retest (caudate (R), 2TCM): 2.21(1.19) | BPND (k3/k4) Test (caudate (R), 2TCM): 1.33(0.68) | ICC (caudate (R)): 0.01 | Error % mean(SD) [4]: -96(126) % | Error range (%) [4]: -288 to12% | BPND (k3/k4) Mean (caudate, 2TCM): 1.65 | BPND (k3/k4) Retest (caudate, 2TCM): 1.92(0.87) | BPND (k3/k4) Test (caudate, 2TCM): 1.37(0.55) | ICC (caudate): 0.01 | Error range (%) (caudate, BPND test-retest difference in measurements): -155 to 30% | Error % mean(SD) (caudate, VT (2TCM) test-retest): 25(36) % | Error range (%) (caudate, VT (2TCM) test-retest): -35 to 62% | VT (2TCM) (caudate, retest): 1.06 (0.24) | VT (2TCM) (caudate, test): 0.88(0.13) | BPND (k3/k4) Mean (cerebellum, 2TCM): 1.33 | BPND (k3/k4) Retest (cerebellum, 2TCM): 1.37(0.24) | BPND (k3/k4) Test (cerebellum, 2TCM): 1.29(0.19) | ICC (cerebellum): 0.07 | Error % mean(SD) [5]: -8% and -8(20) % | Error range (%) [5]: -21 to 32% | Error % mean(SD) [6]: -1(18) % | Error range (%) [6]: -32 to 24% | VT (2TCM) (cerebellum, retest): 0.72 (0.16) | VT (2TCM) (cerebellum, test): 0.74(0.18) | BPND (k3/k4) Mean (grey matter, cortex, 2TCM): 1.55 | BPND (k3/k4) Retest (grey matter, cortex, 2TCM): 1.59(0.29) | BPND (k3/k4) Test (grey matter, cortex, 2TCM): 1.50(0.27) | ICC (grey matter, cortex): 0.47 | Error % mean(SD) [7]: 5% and 5(18) % | Error range (%) [7]: -24 to 25% | K1 [8]: 0.094 mL/cc/min and 0.035 mL/cc/min and 0.044 mL/cc/min and 0.045 mL/cc/min and 0.056 mL/cc/min and 0.057 mL/cc/min | k2 [8]: 0.111 min⁻¹ and 0.086 min⁻¹ and 0.108 min⁻¹ and 0.091 min⁻¹ and 0.099 min⁻¹ and 0.118 min⁻¹ | k2 (grey matter, 1TCM, retest (2), mean(SD/CV) of 6 subjects): 0.102(0.012/12) min^-1 | K1 [9]: 0.062 mL/cc/min and 0.037 mL/cc/min and 0.042 mL/cc/min and 0.074 mL/cc/min and 0.054 mL/cc/min | k2 [9]: 0.086 min⁻¹ and 0.087 min⁻¹ and 0.111 min⁻¹ and 0.106 min⁻¹ and 0.116 min⁻¹ and 0.096 min⁻¹ | K1 [10]: 0.055(0.014/25) mL/cc/min | k2 [10]: 0.100(0.012/12) min^-1 | K1 [11]: 0.077 mL/cc/min and 0.129 mL/cc/min and 0.049 mL/cc/min and 0.067 mL/cc/min and 0.060 mL/cc/min and 0.073 mL/cc/min | k2 [11]: 0.287 min⁻¹ and 0.318 min⁻¹ and 0.246 min⁻¹ and 0.340 min⁻¹ and 0.239 min⁻¹ and 0.234 min⁻¹ | k3 [11]: 0.059 min⁻¹ and 0.111 min⁻¹ and 0.062 min⁻¹ and 0.068 min⁻¹ and 0.065 min⁻¹ | k4 [11]: 0.041 min⁻¹ and 0.076 min⁻¹ and 0.035 min⁻¹ and 0.032 min⁻¹ and 0.045 min⁻¹ and 0.044 min⁻¹ | K1 [12]: 0.076 (0.028/37) mL/cc/min | k2 [12]: 0.277(0.045/16) min^-1 | k3 [12]: 0.071(0.02/28) min^-1 | k4 [12]: 0.046(0.016/34) min^-1 | K1 [13]: 0.082 mL/cc/min and 0.048 mL/cc/min and 0.054 mL/cc/min and 0.094 mL/cc/min and 0.072 mL/cc/min | k2 [13]: 0.220 min⁻¹ and 0.245 min⁻¹ and 0.221 min⁻¹ and 0.264 min⁻¹ and 0.252 min⁻¹ | k3 [13]: 0.061 min⁻¹ and 0.055 min⁻¹ and 0.040 min⁻¹ and 0.038 min⁻¹ and 0.076 min⁻¹ and 0.058 min⁻¹ | k4 [13]: 0.033 min⁻¹ and 0.038 min⁻¹ and 0.023 min⁻¹ and 0.029 min⁻¹ and 0.067 min⁻¹ and 0.026 min⁻¹ | K1 [14]: 0.072(0.018/25) mL/cc/min | k2 [14]: 0.237(0.019/8) min^-1 | k3 [14]: 0.055(0.014/25) min^-1 | Error % mean(SD) [15]: -6(17) % | Error range (%) [15]: -36 to 15% | VT (2TCM) (grey matter, retest): 0.70 (0.17) | VT (2TCM) (grey matter, test): 0.76(0.18) | BPND (k3/k4) Mean (putamen (L), 2TCM): 1.44 | BPND (k3/k4) Retest (putamen (L), 2TCM): 1.60(0.67) | BPND (k3/k4) Test (putamen (L), 2TCM): 1.28(0.31) | ICC (putamen (L)): 0.02 | Error % mean(SD) [16]: -30(59) % | Error range (%) [16]: -145 to 23%
